Experimental data as given in patent US8691790B2, “Therapy of neurological inflammatory diseases with (5'-deoxy-5'-adenosyl) cobamamide, recombinant human growth hormone, interleukins IL-1, IL-6, IL-11, epidermal growth factor, and physiotherapy” (priority 2009, dated 2014).
Entries after “also recorded” stand apart in the source; their conditions may differ.

Experiments:
[1] = test system: clinically definite MS patient in the Secondary Progressive stage of MS (SPMS); experiment: Scoping experiment in therapy with daily AdoCbl injections in one MS patient; type: in vivo, human
Source text: The current patent, by Boucher, teaches the effective use of AdoCbl, by itself, for therapy of MS and other neurological inflammatory diseases and neurodegenerative diseases. […] Approximately 10 years ago the MS Patient was deemed to be in the Secondary Progressive Multiple Sclerosis (SPMS) stage due to the unremitting accumulation of disability. The MS Patient had loss of memory, cognitive impairment, loss of balance, fatigue, nocturia, not able to lift right foot from the floor, not able to raise right hand, not able to write with the right hand or to use a computer keyboard with the right hand, not able to grip with the right hand, not able to eat with a fork in the right hand, had poor heat tolerance, and was marginally ambulatory with a rollator. The MS patient was more affected on the right side than on the left, which prevented the use of a manual wheelchair. A scoping experiment in therapy with daily injections of 1000 mcg of AdoCbl was initiated. […] After three days, the injection size was increased to 5000 mcg of AdoCbl daily. The MS Patient had been making daily injections of 20 mg Copaxone, but these were stopped for about two months when the scoping experiment with daily injections of AdoCbl was initiated. […] The current patent, by Boucher, teaches that AdoCbl, by itself, provides effective therapy of MS and other inflammatory diseases, that AdoCbl facilitates remyelination, that AdoCbl stops secondary progression of disability in MS and allows extensive recovery from the symptoms of MS. The scoping experiment in therapy with AdoCbl was intended as a test of the etiological hypothesis that the enzyme ATP: Cob (I) alamin adenosyltransferase (ATR) in the CSF was a target of the immune system, which was a major factor in the development of MS. The results of the scoping experiment in therapy strongly support the proposed etiological hypothesis. There are missing details, potentially. Therefore, this patent is not to be restricted to addressing the proposed etiological hypothesis, as other etiological processes are possible.
Prior art in the patent literature and in the published medical literature for therapy of MS has no example of therapy that stops and reverses the progressive accumulation of disability.
A scoping experiment in therapy by parenteral injection of at a dose of between 1 μg and 2.5 g daily AdoCbl into a human subject with clinically definite MS in the secondary progressive stage was conducted.

[2] = test system: Relapsing Remitting Multiple Sclerosis (RRMS); settings: human trials reported in the literature; cited from earlier work
[3] = test system: Chronic Progressive forms of MS; settings: human trials reported in the literature; cited from earlier work

C/C1=C2/[N-]C([C@H](CC(N)=O)[C@@]2(C)CCC(=O)NC[C@@H](C)OP(=O)([O-])O[C@H]2[C@@H](O)[C@@H](n3cnc4cc(C)c(C)cc43)O[C@@H]2CO)[C@]2(C)N=C(/C(C)=C3N=C(/C=C4N=C1[C@@H](CCC(N)=O)C\4(C)C)[C@@H](CCC(N)=O)[C@]\3(C)CC(N)=O)[C@@H](CCC(N)=O)[C@]2(C)CC(N)=O.[CH2-][C@H]1O[C@@H](n2cnc3c(N)ncnc32)[C@@H](O)[C@@H]1O.[Co+3] [AdoCbl, (5′-deoxy-5′-adenosyl) cobamide]
ambulation ([1]; 5000 mcg of AdoCbl daily, patient was marginally ambulatory with a rollator before): ambulatory and does not need a wheelchair
effect on progression / accumulation of disability in MS ([1]; AdoCbl by itself, single SPMS patient, 98% pure AdoCbl, for more than one year): dramatic therapeutic effect; also recorded: stops the accumulation of disability and substantially reverses disability; also recorded: stopped and reversed chronic progression of MS; also recorded: effectiveness in stopping and even reversing the progressive accumulation of neurological damage
ability to raise right hand ([1]; daily injections of 1000 mcg of AdoCbl, after three days, single SPMS patient): able to raise their right hand above their head
recovery of lost abilities and MS symptoms ([1]; injection size increased to 5000 mcg of AdoCbl daily after three days, Copaxone stopped for about two months, single SPMS patient): has recovered memory, cognition, normal balance, does not experience fatigue, no longer has nocturia, has recovered some ability with the right leg, is able to write with the right hand, use a computer keyboard with that right hand, and eat with a fork in the right hand
recovery of abilities and symptoms (summary statement) ([1]; parenteral injection, dose of between 1 μg and 2.5 g daily AdoCbl, human subject, secondary progressive MS): regained physical abilities lost years before, regained memory and cognitive abilities, and had complete recovery from many common symptoms of MS such as fatigue and poor balance
need for continued AdoCbl injections ([1]; single SPMS patient): necessary to prevent relapse to the common symptoms of MS

Copolymer-1
effect on rate of relapse [2]: effective in lowering the rate of relapse
benefit in chronic progressive MS [3]: no effective benefit
